Entries after “also recorded” stand apart in the source; their conditions may differ.
Experiments:
[1] = Dissolving tests with ERr 731 in ethanol and glycerol; assay type: physicochemical
Method: a) Dissolving Tests with ERr 731® in Ethanol and Glycerol:
Test A: 200 mg of dry extract in 50 ml of glycerol R:
Test B: 200 mg of dry extract in 50 ml of ethanol 30% R:
Test C: 200 mg of dry extract in 50 ml of ethanol 50% R:
Test D: 200 mg of dry extract in 50 ml of ethanol 86% R: […]

[2] = molecular target: T1, estrogen receptor β (ERβ) (Homo sapiens, UniProt Q92731); assay: ERβ/mC3-luciferase transactivation in HEC-1B cells; assay type: cell-based; conditions: 24 hours incubation, FIG. 5
T1 construct: expressed in transfected cells; host or cells: HEC-1B cells (human endometrial adenocarcinoma; no endogenous ERα or ERβ), transient transfection with DOTAP
T1 sequence (Q92731 whole entry): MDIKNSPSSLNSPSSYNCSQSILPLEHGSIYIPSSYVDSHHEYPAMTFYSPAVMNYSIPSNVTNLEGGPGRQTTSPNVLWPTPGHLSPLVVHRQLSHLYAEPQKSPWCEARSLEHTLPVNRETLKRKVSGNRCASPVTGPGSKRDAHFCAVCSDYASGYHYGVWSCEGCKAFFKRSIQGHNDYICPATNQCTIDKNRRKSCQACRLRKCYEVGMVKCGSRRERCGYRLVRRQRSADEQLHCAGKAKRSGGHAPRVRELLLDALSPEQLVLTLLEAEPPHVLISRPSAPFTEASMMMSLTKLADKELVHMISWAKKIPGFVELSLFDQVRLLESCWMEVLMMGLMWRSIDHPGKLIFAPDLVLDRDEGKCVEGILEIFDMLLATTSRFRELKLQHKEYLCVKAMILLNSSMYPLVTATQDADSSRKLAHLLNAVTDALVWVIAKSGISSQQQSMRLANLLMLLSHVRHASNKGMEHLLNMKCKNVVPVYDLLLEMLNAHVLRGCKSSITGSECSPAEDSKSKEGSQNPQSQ
Description: They therefore represent a possible way of investigating, in a human and endometrial context, ligand-dependent effects of substances on the transactivation mechanisms in relation to different receptor subtypes and different estrogen-responsive promoters.
An established ERβ/mC3-luciferase system was employed. For this purpose, HEC-1B cells were applied in 24-well plates with a density of 95 000 cells/well (in Dulbecco's modified Essential Medium (DMEM/F12)). The next day, they were cotransfected with an ERβ-containing construct (hERβ/pSG2) and a triple-ERE-containing promoter/luciferase construct (mC3-Luc/pGL2) (Hillisch et al. Dissecting physiological roles of estrogen receptor alpha and beta with potent selective ligands from structure-based design. Mol Endocrinol. 2004 July; 18:1599-609). The transient transfection took place using DOTAP (N-[1-(2,3-dioleoyloxy)]-N,N,N-trimethylammoniumpropane methyl-sulfate, Roth) as described by the manufacturer.
After 24 hours, the cells were treated with appropriate concentrations of the substances or substance mixtures to be investigated. […] The incubation time was 24 hours. The cells were then lysed. The Luciferase Assay® kit (Promega) was used to determine the luciferase activity on the one hand, and the BCA® kit (Sigma) was used to determine the protein content on the other hand. […]

[3] = Pharmacokinetics of ERr 731 ingredients in a subject (plasma LC-MS/MS); assay type: in vivo, human; conditions: 40 mg ERr 731 orally (10 tablets)
Method: Subsequently, 10 ml of blood was taken at various times (as indicated in FIG. 1) and the plasma was obtained by centrifugation.
These plasma samples were processed as follows: 500 μl of plasma were mixed with 25 μl of an internal standard working solution (2.5 ng/μl rhaponticin or rhapontigenin in methanol) and then mixed with 500 μl of isotonic NaCl solution and 2.5 ml of diethyl ether/butanol (9/1; v/v). After shaking and centrifugation (10 minutes at 4600 rpm), about 2 ml of the supernatant were removed and dried under a stream of nitrogen (at 60° C.). The pellet was taken up in 50 μl of methanol. Addition of 200 μl of distilled water was followed by renewed mixing, and 200 μl were pipetted into autosampler tubes (light-protected). 30 μl of the samples were injected for analysis into an LC-MS/MS system (PE Sciex API 3000). Chromatographic separation of the analytes took place on a Phenomenex Polymer X column with a gradient of an ammonium buffer solution and an acetonitrile/methanol mixture as mobile phase.

[4] = pH-dependent solubility of rhaponticin in aqueous solutions; assay type: physicochemical; conditions: acidic pH range (pH 3.4-3.6)
Description: Use is made of this for its isolation. Since, besides other organic acids, the root in particular has a high content of oxalic acid (⅔ in water-soluble and ⅓ in bound form), this must be neutralized during the isolation in order to prevent the pH drifting into the acidic range and thus to inhibit premature precipitation of the rhaponticin. This is achieved by using calcium oxide. The latter is employed as quicklime solution with a pH of 12.4-12.6.

[5] = Test A: 200 mg of dry extract in 50 ml of glycerol R
[6] = Test B: 200 mg of dry extract in 50 ml of ethanol 30% R
[7] = Test C: 200 mg of dry extract in 50 ml of ethanol 50% R
[8] = Test D: 200 mg of dry extract in 50 ml of ethanol 86% R

content dissolved [1, 5] | content dissolved relative to theory [1, 5] | content dissolved [1, 6] | content dissolved relative to theory [1, 6] | content dissolved [1, 7] | content dissolved relative to theory [1, 7] | content dissolved [1, 8] | content dissolved relative to theory [1, 8] | detection in the blood [3] | time of maximum in the blood [3] | solubility in aqueous solutions [4] | Structure (SMILES) | activation of ERβ (relative luciferase activity vs DMSO control) [2]
27.1% deoxyrhaponticin | (90.6% of theory) | 25.2% deoxyrhaponticin | (84.2% of theory) | 29.0% deoxyrhaponticin | (97.0% of theory) | 29.5% deoxyrhaponticin | (98.7% of theory) | – | – | – | COc1ccc(C=Cc2cc(O)cc(O[C@@H]3O[C@H](CO)[C@@H](O)[C@H](O)[C@H]3O)c2)cc1 [deoxyrhaponticin] | –
– | – | – | – | – | – | – | – | – | – | – | COc1ccc(C=Cc2cccc(O)c2)cc1O [deoxyrhapontigenin, 3′,5-Dihydroxy-4′-methoxystilbene] | activate the ERβ dose-dependently; also recorded: effective only at higher concentrations
55.1% rhaponticin | (89.0% of theory) | 52.2% rhaponticin | (84.3% of theory) | 58.8% rhaponticin | (95.0% of theory) | 59.8% rhaponticin | (96.6% of theory) | detected in the blood | 3 to 4 h | precipitated as yellowish substance | COc1ccc(C=Cc2cc(O)cc(O[C@@H]3O[C@H](CO)[C@@H](O)[C@H](O)[C@H]3O)c2)cc1O [rhaponticin, 3,3′,5-Trihydroxy-4′-methoxystilbene 3-O-β-D-glucopyranoside] | –
